A word on the DC50: it is the concentration at which degradation of the target reaches its halfway point. Usually pIC50 stands for −log10 of the IC50, conventionally taken in molar units.

Our source for the Dmax, DC50 and IC50 values is US20240150360A1 (THE REGENTS OF THE UNIVERSITY OF MICHIGAN, priority 2021, published 2024).

pIC50: −log10 of the molar value.

The target in test [1] is T1, CBP (Homo sapiens, UniProt Q92793).
T1 construct: endogenous in cells; host or cells: 22Rv1 (ATCC CRL-2505) human prostate cancer cells
Nature of the test: CBP degradation in 22Rv1 cells (5 h). Conditions: 22Rv1 cells, 5 h; for Dmax: 22Rv1, 5 h, read-out: CBP Degradation (22Rv1, 5 h) DCmax. The class given is cell-based. The text has this:
Biological Assays. […] Cells with 3-8 passages after purchase were used in experiments.

The test system of test [2] is HL60. Nature of the test: Cell growth inhibition in HL60. The class given is cell-based. Conditions: Homo sapiens, HL-60, HL60 cells; read-out: Cell Growth Inhibition (IC50) HL60.
Test [3] concerns 22Rv1 cells. Put plainly: Cell growth inhibition assay (CellTiter-Glo) in 22Rv1. The class given is cell-based, human. The settings on record: Homo sapiens, 22Rv1, 96 h, 22Rv1 cells, 96 h incubation; read-out: Cell Growth Inhibition (IC50) 22Rv1. The procedure:
Biological Assays. CBP/p300 degradation activity and cell growth inhibition were evaluated in the human prostate cancer cell line 22Rv1 (ATCC© CRL-2505™) purchased from the American Type Culture Collection (ATCC), Manassas, VA, and maintained and cultured in Dulbecco's Modified Eagle's medium (DMEM) containing 10% fetal bovine serum, 1 unit/ml of penicillin and 1 μg/ml of streptomycin. Cells with 3-8 passages after purchase were used in experiments.
Cell Growth Inhibition Assay Protocol. 22RV1 cells were seeded at a concentration of 4000 cells/well in 100 μl culture medium and 2 μl of test compound (final concentration start from 10 μM and 3 times dilution) into 96 well microplates (Corning 3903). The cell cultures were incubated for 96 h at +37° C. and 5% CO2. The plate and its contents were equilibrated to room temperature for approximately 30 minutes. 100 μl of CellTiter-Glo® 2.0 Reagent equal to the volume of cell culture medium present was added in each well. The contents were mixed for 2 minutes on an orbital shaker. The plate was allowed to incubate at room temperature for 10 minutes. The luminescence was recorded. The data was analyzed by Prism GraphPad 8.
On the technique in general: In ATP-based viability assays light output follows the ATP content of the culture.

T1 sequence (Q92793 whole entry): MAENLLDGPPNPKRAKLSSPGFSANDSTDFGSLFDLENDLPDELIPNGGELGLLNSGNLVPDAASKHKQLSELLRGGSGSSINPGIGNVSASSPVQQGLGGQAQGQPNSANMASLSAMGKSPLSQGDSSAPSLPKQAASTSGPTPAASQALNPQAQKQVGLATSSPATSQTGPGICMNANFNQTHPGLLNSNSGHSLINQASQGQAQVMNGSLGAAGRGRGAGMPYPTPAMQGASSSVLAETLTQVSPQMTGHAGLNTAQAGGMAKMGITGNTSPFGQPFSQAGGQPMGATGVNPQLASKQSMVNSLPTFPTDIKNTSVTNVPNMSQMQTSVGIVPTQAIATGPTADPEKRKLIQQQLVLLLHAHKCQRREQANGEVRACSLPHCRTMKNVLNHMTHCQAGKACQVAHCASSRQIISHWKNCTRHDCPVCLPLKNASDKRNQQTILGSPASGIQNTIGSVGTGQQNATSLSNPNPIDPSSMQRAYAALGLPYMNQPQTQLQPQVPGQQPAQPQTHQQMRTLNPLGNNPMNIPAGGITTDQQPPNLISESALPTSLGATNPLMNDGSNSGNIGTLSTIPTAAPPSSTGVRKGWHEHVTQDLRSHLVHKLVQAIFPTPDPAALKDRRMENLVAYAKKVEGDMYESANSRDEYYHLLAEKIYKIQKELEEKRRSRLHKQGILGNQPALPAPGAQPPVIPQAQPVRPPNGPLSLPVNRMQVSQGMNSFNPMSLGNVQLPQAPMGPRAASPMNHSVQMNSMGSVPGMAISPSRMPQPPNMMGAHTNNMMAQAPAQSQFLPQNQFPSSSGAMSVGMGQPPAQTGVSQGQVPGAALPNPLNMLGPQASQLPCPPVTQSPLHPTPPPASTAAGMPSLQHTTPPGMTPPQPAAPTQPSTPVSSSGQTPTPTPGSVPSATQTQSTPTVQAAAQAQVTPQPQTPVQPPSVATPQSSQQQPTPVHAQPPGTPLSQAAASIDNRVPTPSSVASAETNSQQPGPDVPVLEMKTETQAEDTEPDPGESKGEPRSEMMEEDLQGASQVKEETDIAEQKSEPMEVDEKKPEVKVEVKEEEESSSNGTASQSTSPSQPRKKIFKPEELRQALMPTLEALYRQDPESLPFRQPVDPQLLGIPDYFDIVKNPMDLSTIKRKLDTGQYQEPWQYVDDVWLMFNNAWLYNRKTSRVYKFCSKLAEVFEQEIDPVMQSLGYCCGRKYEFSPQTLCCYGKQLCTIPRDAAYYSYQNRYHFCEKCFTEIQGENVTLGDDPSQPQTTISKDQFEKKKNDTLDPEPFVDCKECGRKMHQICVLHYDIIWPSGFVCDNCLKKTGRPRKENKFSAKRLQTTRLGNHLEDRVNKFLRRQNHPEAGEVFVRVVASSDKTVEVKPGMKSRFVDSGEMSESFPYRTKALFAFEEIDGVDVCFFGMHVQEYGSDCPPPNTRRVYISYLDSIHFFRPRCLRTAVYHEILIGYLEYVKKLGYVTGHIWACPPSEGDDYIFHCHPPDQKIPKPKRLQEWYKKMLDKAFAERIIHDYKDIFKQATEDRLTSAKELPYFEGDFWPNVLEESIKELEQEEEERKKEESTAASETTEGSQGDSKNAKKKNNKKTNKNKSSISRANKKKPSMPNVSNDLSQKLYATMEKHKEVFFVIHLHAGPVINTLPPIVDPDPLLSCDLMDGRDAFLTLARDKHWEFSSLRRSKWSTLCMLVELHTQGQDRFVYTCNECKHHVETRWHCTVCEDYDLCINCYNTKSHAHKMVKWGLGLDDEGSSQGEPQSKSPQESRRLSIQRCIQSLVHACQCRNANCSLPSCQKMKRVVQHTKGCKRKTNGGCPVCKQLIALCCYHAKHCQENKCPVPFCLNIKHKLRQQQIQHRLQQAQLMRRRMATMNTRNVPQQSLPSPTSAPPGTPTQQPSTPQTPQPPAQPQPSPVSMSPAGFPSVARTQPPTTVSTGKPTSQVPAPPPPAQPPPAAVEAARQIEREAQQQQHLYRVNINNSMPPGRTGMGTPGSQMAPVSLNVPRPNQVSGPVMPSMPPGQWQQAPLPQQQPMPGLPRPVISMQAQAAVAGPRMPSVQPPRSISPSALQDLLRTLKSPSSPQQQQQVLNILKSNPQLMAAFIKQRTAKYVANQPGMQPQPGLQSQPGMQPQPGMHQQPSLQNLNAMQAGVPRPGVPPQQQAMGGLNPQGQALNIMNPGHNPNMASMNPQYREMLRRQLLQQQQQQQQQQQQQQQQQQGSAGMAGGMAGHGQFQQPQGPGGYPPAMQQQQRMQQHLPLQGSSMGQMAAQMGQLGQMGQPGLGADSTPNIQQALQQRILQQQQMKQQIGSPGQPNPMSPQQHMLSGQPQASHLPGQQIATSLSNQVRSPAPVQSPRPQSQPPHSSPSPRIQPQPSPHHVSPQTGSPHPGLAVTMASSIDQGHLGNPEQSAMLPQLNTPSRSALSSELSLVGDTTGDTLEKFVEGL

With `CC(=O)N1CCc2c(c(N3CCCc4cc(-c5cnn(C)c5)c(C(F)F)cc43)nn2C[C@H]2CC[C@@H](N3CCc4cc5c(cc4C3)C(=O)N(C3CCC(=O)NC3=O)C5=O)CC2)C1` (relative stereo) [CP-042, 6-(4-((5-acetyl-3-(7-(difluoromethyl)-6-(1-methyl-1H-pyrazol-4-yl)-3,4-dihydroquinolin-1(2H)-yl)-4,5,6,7-tetrahydro-1H-pyrazolo[4,3-c]pyridin-1-yl)methyl)cyclohexyl)-2-(2,6-dioxopiperidin-3-yl)-5,6,7,8-tetrahydro-1H-pyrrolo[3,4-g]isoquinoline-1,3(2H)-dione], in test [1], the Dmax is over 90% and the DC50 was under 10 nM. Also, the pIC50 in test [2] is over 7.00. Also, the pIC50 in test [3] is over 6.00.

With `CC(=O)N1CCc2c(c(N3CCCc4cc(-c5cnn(C)c5)c(C(F)F)cc43)nn2C2CCN(C(=O)CN3CCc4cc5c(cc4C3)C(=O)N(C3CCC(=O)NC3=O)C5=O)CC2)C1` (stereo not shown) [CP-001, 6-(2-(4-(5-acetyl-3-(7-(difluoromethyl)-6-(1-methyl-1H-pyrazol-4-yl)-3,4-dihydroquinolin-1(2H)-yl)-4,5,6,7-tetrahydro-1H-pyrazolo[4,3-c]pyridin-1-yl)piperidin-1-yl)-2-oxoethyl)-2-(2,6-dioxopiperidin-3-yl)-5,6,7,8-tetrahydro-1H-pyrrolo[3,4-g]isoquinoline-1,3(2H)-dione], in test [1], the Dmax was over 90% and the DC50 is under 10 nM. For the same molecule, the pIC50 in test [2] was over 7.00. The pIC50 in test [3] was over 7.00.

Consider `CC(=O)N1CCc2c(c(N3CCCc4cc(-c5cnn(C)c5)c(C(F)F)cc43)nn2C2CCN(CC(=O)N3CCc4cc5c(cc4C3)C(=O)N(C3CCC(=O)NC3=O)C5=O)CC2)C1` (stereo not shown) [CP-002, 6-(2-(4-(5-acetyl-3-(7-(difluoromethyl)-6-(1-methyl-1H-pyrazol-4-yl)-3,4-dihydroquinolin-1(2H)-yl)-4,5,6,7-tetrahydro-1H-pyrazolo[4,3-c]pyridin-1-yl)piperidin-1-yl)acetyl)-2-(2,6-dioxopiperidin-3-yl)-5,6,7,8-tetrahydro-1H-pyrrolo[3,4-g]isoquinoline-1,3(2H)-dione], for which, in test [1], the Dmax is over 90% and the DC50 was under 10 nM. For the same molecule, the negative-log IC50 (pIC50) in test [2] was over 6.00. In addition, the pIC50 in test [3] is over 5.00.

`CC(=O)N1CCc2c(c(N3CCCc4cc(-c5cnn(C)c5)c(C(F)F)cc43)nn2C2CCN(C(=O)CCN3CCc4cc5c(cc4C3)C(=O)N(C3CCC(=O)NC3=O)C5=O)CC2)C1` (stereo not shown) [CP-003, 6-(3-(4-(5-acetyl-3-(7-(difluoromethyl)-6-(1-methyl-1H-pyrazol-4-yl)-3,4-dihydroquinolin-1(2H)-yl)-4,5,6,7-tetrahydro-1H-pyrazolo[4,3-c]pyridin-1-yl)piperidin-1-yl)-3-oxopropyl)-2-(2,6-dioxopiperidin-3-yl)-5,6,7,8-tetrahydro-1H-pyrrolo[3,4-g]isoquinoline-1,3(2H)-dione]: in test [1], the Dmax was over 50% and the DC50 is under 100 nM. In addition, in test [2], the pIC50 is over 6.00. The pIC50 in test [3] is over 5.00.

Regarding `CC(=O)N1CCc2c(c(N3CCCc4cc(-c5cnn(C)c5)c(C(F)F)cc43)nn2C2CCN(C(=O)CCCN3CCc4cc5c(cc4C3)C(=O)N(C3CCC(=O)NC3=O)C5=O)CC2)C1` (stereo not shown) [CP-004, 6-(4-(4-(5-acetyl-3-(7-(difluoromethyl)-6-(1-methyl-1H-pyrazol-4-yl)-3,4-dihydroquinolin-1(2H)-yl)-4,5,6,7-tetrahydro-1H-pyrazolo[4,3-c]pyridin-1-yl)piperidin-1-yl)-4-oxobutyl)-2-(2,6-dioxopiperidin-3-yl)-5,6,7,8-tetrahydro-1H-pyrrolo[3,4-g]isoquinoline-1,3(2H)-dione], in test [1], the Dmax was over 70% and the DC50 was under 10 nM. Moreover, the pIC50 in test [2] is over 6.00. Besides, the pIC50 in test [3] is over 6.00.

On to `CC(=O)N1CCc2c(c(N3CCCc4cc(-c5cnn(C)c5)c(C(F)F)cc43)nn2C2CCN(CC(=O)N3Cc4cc5c(cc4C3)C(=O)N(C3CCC(=O)NC3=O)C5=O)CC2)C1` (stereo not shown) [CP-006, 6-(2-(4-(5-acetyl-3-(7-(difluoromethyl)-6-(1-methyl-1H-pyrazol-4-yl)-3,4-dihydroquinolin-1(2H)-yl)-4,5,6,7-tetrahydro-1H-pyrazolo[4,3-c]pyridin-1-yl)piperidin-1-yl)acetyl)-2-(2,6-dioxopiperidin-3-yl)-6,7-dihydropyrrolo[3,4-f]isoindole-1,3(2H,5H)-dione], for which, in test [1], the Dmax was over 70% and the DC50 is under 10 nM. For the same molecule, the pIC50 in test [2] was over 6.00. Also, the negative logarithm of the IC50 (pIC50) in test [3] was over 5.00.

Consider `CC(=O)N1CCc2c(c(N3CCCc4cc(-c5cnn(C)c5)c(C(F)F)cc43)nn2C2CCN(C(=O)CCN3Cc4cc5c(cc4C3)C(=O)N(C3CCC(=O)NC3=O)C5=O)CC2)C1` (stereo not shown) [CP-007, 6-(3-(4-(5-acetyl-3-(7-(difluoromethyl)-6-(1-methyl-1H-pyrazol-4-yl)-3,4-dihydroquinolin-1(2H)-yl)-4,5,6,7-tetrahydro-1H-pyrazolo[4,3-c]pyridin-1-yl)piperidin-1-yl)-3-oxopropyl)-2-(2,6-dioxopiperidin-3-yl)-6,7-dihydropyrrolo[3,4-f]isoindole-1,3(2H,5H)-dione], for which, in test [1], the Dmax was over 70%. Besides, in test [1], the DC50 was under 100 nM. The pIC50 in test [2] and in test [3] was over 6.00 in each case.

On to `CC(=O)N1CCc2c(c(N3CCCc4cc(-c5cnn(C)c5)c(C(F)F)cc43)nn2C2CCN(C(=O)CCCN3Cc4cc5c(cc4C3)C(=O)N(C3CCC(=O)NC3=O)C5=O)CC2)C1` (stereo not shown) [CP-008, 6-(4-(4-(5-acetyl-3-(7-(difluoromethyl)-6-(1-methyl-1H-pyrazol-4-yl)-3,4-dihydroquinolin-1(2H)-yl)-4,5,6,7-tetrahydro-1H-pyrazolo[4,3-c]pyridin-1-yl)piperidin-1-yl)-4-oxobutyl)-2-(2,6-dioxopiperidin-3-yl)-6,7-dihydropyrrolo[3,4-f]isoindole-1,3(2H,5H)-dione], for which, in test [1], the Dmax was over 70% and the 50% degradation concentration (DC50) was under 10 nM. Besides, in test [2], the pIC50 is over 7.00. The negative logarithm of the IC50 (pIC50) in test [3] is over 7.00.

As to `CC(=O)N1CCc2c(c(N3CCCc4ccc(C(F)F)cc43)nn2C2CCN(C(=O)CN3CCc4cc5c(cc4C3)C(=O)N(C3CCC(=O)NC3=O)C5=O)CC2)C1` (stereo not shown) [CP-009, 6-(2-(4-(5-acetyl-3-(7-(difluoromethyl)-3,4-dihydroquinolin-1(2H)-yl)-4,5,6,7-tetrahydro-1H-pyrazolo[4,3-c]pyridin-1-yl)piperidin-1-yl)-2-oxoethyl)-2-(2,6-dioxopiperidin-3-yl)-5,6,7,8-tetrahydro-1H-pyrrolo[3,4-g]isoquinoline-1,3(2H)-dione], in test [1], the Dmax is over 90% and the DC50 is under 10 nM. Further, the pIC50 in test [2] is over 7.00. Besides, the pIC50 in test [3] was over 6.00.

In the case of `CC(=O)N1CCc2c(c(N3CCCc4ccc(C(F)F)cc43)nn2C2CCN(C(=O)CN3Cc4cc5c(cc4C3)C(=O)N(C3CCC(=O)NC3=O)C5=O)CC2)C1` (stereo not shown) [CP-010, 6-(2-(4-(5-acetyl-3-(7-(difluoromethyl)-3,4-dihydroquinolin-1(2H)-yl)-4,5,6,7-tetrahydro-1H-pyrazolo[4,3-c]pyridin-1-yl)piperidin-1-yl)-2-oxoethyl)-2-(2,6-dioxopiperidin-3-yl)-6,7-dihydropyrrolo[3,4-f]isoindole-1,3(2H,5H)-dione], in test [1], the Dmax is over 70% and the DC50 was under 100 nM. The pIC50 in test [2] is over 6.00. Further, the negative-log IC50 (pIC50) in test [3] is under 5.00.
